Laboratory results as given in patent publication US9169252B2 (BRISTOL-MYERS SQUIBB COMPANY, priority 2014, dated 2015).
Counter-ions that a name gives are not always drawn. Like-named read-outs stand apart in the source and are kept apart here.

Legend:
[1] = target: IRAK4 (Homo sapiens (Human), UniProt Q9NWZ3); experiment: IRAK4 Inhibition Assay; assay type: biochemical; conditions: ATP 500 μM, read-out: IRAK4 IC50
How it was run: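 IRAK4 combined with fluorescent substrate and compounds, reacted 60 min at room temperature, stopped with 35 mM EDTA. Substrate and phosphorylated product separated electrophoretically on a Caliper LabChip 3000 mobility-shift reader.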

[2] = test system: TLR2 induced IL-6 in peripheral blood mononuclear cells (PBMCs); experiment: PBMC TLR2 Induced IL-6 Assay; assay type: cell-based, human; conditions: IL-6 by ELISA; for IC50: read-out: Cell IC50; for EC50: read-out: Cell EC50
How it was run: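 Lipoteichoic acid at 10 µg/ml served as TLR2 stimulus for 5 hours, following a 30-minute compound pretreatment at 37° C. Cells were Ficoll-isolated human PBMCs, 250000 cells/well, cultured in RPMI plus 10% heat-inactivated FCS.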

[3] = Homo sapiens, PBMC, PBMC TLR2 Induced IL-6 Assay, lipoteichoic acid stimulation
[4] = Homo sapiens, PBMC, human PBMCs, lipoteichoic acid stimulated

Chain of IRAK4 (Q9NWZ3 whole entry, species assumed): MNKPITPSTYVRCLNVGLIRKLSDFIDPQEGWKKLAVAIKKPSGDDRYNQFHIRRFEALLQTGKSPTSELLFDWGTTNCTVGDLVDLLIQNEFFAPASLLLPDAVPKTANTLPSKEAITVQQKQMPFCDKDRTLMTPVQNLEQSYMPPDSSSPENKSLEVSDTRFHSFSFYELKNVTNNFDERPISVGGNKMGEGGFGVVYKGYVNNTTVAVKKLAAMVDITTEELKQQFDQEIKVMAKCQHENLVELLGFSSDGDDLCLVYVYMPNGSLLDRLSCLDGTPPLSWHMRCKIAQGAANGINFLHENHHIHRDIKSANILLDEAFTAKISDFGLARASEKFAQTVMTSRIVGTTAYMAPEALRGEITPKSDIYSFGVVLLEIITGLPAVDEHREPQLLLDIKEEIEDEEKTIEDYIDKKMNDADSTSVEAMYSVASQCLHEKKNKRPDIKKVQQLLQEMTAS

Row | IC50 ([1]; IRAK4 Inhibition Assay) | IC50 ([1]; IRAK4 0.6 nM) | Compound | IC50 [2, 3] | EC50 [2, 3] | further results
1 | 8 nM |  | CC(C)Nc1cc(-n2ncc3cc(C#N)cnc32)ncc1C(=O)NCCC1CCN(C(=O)CC#N)CC1 [Example 275] | 115 nM |  | 
2 |  | 4.4 nM | C[C@H](Nc1cc(-n2ccc3cc(C#N)cnc32)ncc1C(=O)NC[C@@H](F)C(C)(C)O)C1CC1 [Example 451] |  |  | EC50 [2, 4]: 429 nM
3 |  | 17.5 nM | Cn1nccc1Nc1cc(-n2ncc3cc(C#N)cnc32)ncc1C(=O)NC[C@@H](F)C(C)(C)O [Example 409] |  |  | EC50 [2, 4]: 463 nM
4 | 1.3 nM |  | CC(C)(O)[C@H](F)CNC(=O)c1cnc(-n2ncc3cc(Cl)cnc32)cc1Nc1cnn(CCCF)c1 [Example 367] | 41 nM |  | 
5 | 10 nM |  | CC(C)Nc1cc(-n2ncc3cc(C#N)cnc32)ncc1C(=O)Nc1cnn(CC(F)F)c1 [Example 285] | 200 nM |  | 
6 | 2.5 nM |  | CC(C)(O)[C@H](F)CNC(=O)c1cnc(-n2ccc3cc(C#N)cnc32)cc1Nc1cccc(C(N)=O)c1 [Example 56, (R)-4-((3-carbamoylphenyl)amino)-6-(5-cyano-1H-pyrrolo[2,3-b]pyridin-1-yl)-N-(2-fluoro-3-hydroxy-3-methylbutyl)nicotinamide] |  | 102 nM | 
7 |  | 13 nM | CC(C)[C@@H](CO)Nc1cc(-n2ncc3cc(C#N)cnc32)ncc1C(=O)NC[C@@H](F)C(C)(C)O [Example 569] |  |  | EC50 [2, 4]: 242 nM
8 | 3 nM |  | CC(C)Nc1cc(-n2ncc3cc(C#N)cnc32)ncc1C(=O)NC[C@@H](F)C(C)(C)F [Example 308] | 73 nM |  | 
9 |  | 13.8 nM | CC(C)(O)[C@H](F)CNC(=O)c1cnc(-n2ncc3cc(C#N)cnc32)cc1NCCNC(=O)OC(C)(C)C(F)(F)F [Example 587] |  |  | IC50 [2, 4]: 298 nM
10 | 3.4 nM |  | COC1CCC(NC(=O)c2cnc(-n3ncc4cc(C#N)cnc43)cc2NC(C)C)CC1 (centres unmarked) [Example 198] |  | 134 nM | 
11 |  | 2.5 nM | CC(C)(F)[C@H](F)CNC(=O)c1cnc(-n2cnc3cc(Cl)cnc32)cc1Nc1cnn(CC(F)F)c1 [Example 402] |  |  | IC50 [2, 4]: 412 nM
12 | 3.7 nM |  | CC(C)Nc1cc(-n2cnc3cnc(N)nc32)ncc1C(=O)NC[C@@H](F)C(C)(C)O [Example 171, (R)-6-(2-Amino-9H-purin-9-yl)-N-(2-fluoro-3-hydroxy-3-methylbutyl)-4-(isopropylamino)nicotinamide] | 587 nM | 208 nM | 
13 | 6.7 nM |  | CC(C)Nc1cc(-n2ncc3cc(C#N)c(N)nc32)ncc1C(=O)NC1(C)CC1 [Example 322] | 159 nM |  | 
14 | 4.7 nM |  | CNC(=O)[C@H](F)CNC(=O)c1cnc(-n2ccc3cc(C#N)cnc32)cc1NC1CC1 [Example 132, (R)-6-(5-Cyano-1H-pyrrolo[2,3-b]pyridin-1-yl)-4-(cyclopropylamino)-N-(2-fluoro-3-(methylamino)-3-oxopropyl)nicotinamide] |  | 92 nM | 
15 |  | 10.9 nM | CC(C)(O)[C@H](F)CNC(=O)c1cnc(N2CCc3cc(C#N)cnc32)cc1NC1CC1 [Example 616] |  |  | EC50 [2, 4]: 305 nM; IC50 [2, 4]: 425 nM
16 |  | 12.6 nM | CC(C)(O)[C@H](F)CNC(=O)c1cnc(-n2ncc3cc(C#N)cnc32)cc1N[C@H]1CC[C@](C)(O)CC1 [Example 608] |  |  | EC50 [2, 4]: 318 nM
17 | 5.6 nM |  | CC(C)Nc1cc(-n2ccc3cc(C#N)cnc32)ncc1C(=O)NCCCOC(C)C [Example 47, 6-(5-cyano-1H-pyrrolo[2,3-b]pyridin-1-yl)-N-(3-isopropoxypropyl)-4-(isopropylamino) nicotinamide] |  | 173 nM | 
18 |  | 3.5 nM | CC(C)(O)c1cnc(Nc2cc(-n3ncc4cc(C#N)cnc43)ncc2C(=O)NC[C@@H](F)C(C)(C)O)s1 [Example 521, (R)-6-(5-Cyano-1H-pyrazolo[3,4-b]pyridin-1-yl)-N-(2-fluoro-3-hydroxy-3-methylbutyl)-4-((5-(2-hydroxypropan-2-yl)thiazol-2-yl)amino)nicotinamide] |  |  | EC50 [2, 4]: 460 nM
19 | 15.7 nM |  | CC(C)Nc1cc(-n2ncc3cc(C#N)cnc32)ncc1C(=O)NC1CCN(c2ncccn2)CC1 [Example 240] |  | 305 nM | 
20 | 1.9 nM |  | CC(=O)N[C@H]1CC[C@H](NC(=O)c2cnc(-n3ccc4cc(C#N)cnc43)cc2NC2CC2)CC1 [Example 87, N-((trans)-4-acetamidocyclohexyl)-6-(5-cyano-1H-pyrrolo[2,3-b]pyridin-1-yl)-4-(cyclopropylamino)nicotinamide] |  | 63 nM | 

Row | IC50 ([1]; IRAK4 Inhibition Assay) | IC50 ([1]; IRAK4 0.6 nM) | Compound | IC50 [2, 3] | EC50 [2, 3] | further results
21 |  | 5.7 nM | CC(C)(O)[C@H](F)CNC(=O)c1cnc(-n2cnc3cc(C#N)cnc32)cc1Nc1cnn(C(F)F)c1 [Example 401] |  |  | IC50 [2, 4]: 485 nM
22 | 10.6 nM |  | CC(C)Nc1cc(-n2ncc3cc(C#N)cnc32)ncc1C(=O)Nc1cnn(C2COC2)c1 [Example 268] | 171 nM |  | 
23 | 1.8 nM |  | CC(C)(O)[C@H](F)CNC(=O)c1cnc(-n2ccc3cc(C#N)cnc32)cc1NC1CCCC1 [Example 10, (R)-6-(5-cyano-1H-pyrrolo[2,3-b]pyridin-1-yl)-4-(cyclopentylamino)-N-(2-fluoro-3-hydroxy-3-methylbutyl)nicotinamide] | 79 nM | 63 nM | 
24 | 4.1 nM |  | CC(C)Nc1cc(-n2ccc3cc(C#N)cnc32)ncc1C(=O)NC1CCC2(CC1)NC(=O)NC2=O (centres unmarked) [Example 183, 6-(5-Cyano-1H-pyrrolo[2,3-b]pyridin-1-yl)-N-(2,4-dioxo-1,3-diazaspiro[4.5]decan-8-yl)-4-(isopropylamino)nicotinamide] |  | 179 nM | 
25 | 1.1 nM |  | CC(C)Nc1cc(-n2ccc3cncnc32)ncc1C(=O)NC[C@@H](F)C(C)(C)O [Example 39, (R)—N-(2-fluoro-3-hydroxy-3-methylbutyl)-4-(isopropylamino)-6-(7H-pyrrolo[2,3-d]pyrimidin-7-yl)nicotinamide] | 151 nM | 151 nM | 
26 | 1.7 nM |  | CC(C)(O)CCNC(=O)c1cnc(-n2ccc3cc(C#N)cnc32)cc1NC1CCOCC1 [Example 12, 6-(5-cyano-1H-pyrrolo[2,3-b]pyridin-1-yl)-N-(3-hydroxy-3-methylbutyl)-4-((tetrahydro-2H-pyran-4-yl)amino)nicotinamide] |  | 122 nM | 
27 | 3.5 nM |  | CC1(Nc2cc(-n3cnc4cc(C#N)cnc43)ncc2C(=O)NC[C@@H](F)C(C)(C)O)CC1 [Example 343] | 428 nM |  | 
28 | 2.4 nM |  | CC(C)(O)[C@H](F)CNC(=O)c1cnc(-n2ncc3cc(C#N)cnc32)cc1Nc1cnn(CCCF)c1 [Example 368] | 61 nM |  | 
29 |  | 1.2 nM | COC(=O)N1CC[C@@H](Nc2cc(-n3ccc4cc(C#N)cnc43)ncc2C(=O)NC[C@@H](F)C(C)(C)O)C1 [Example 474] |  |  | EC50 [2, 4]: 77 nM; IC50 [2, 4]: 315 nM
30 | 4.9 nM |  | COC(=O)N[C@H]1CC[C@H](NC(=O)c2cnc(-n3ccc4cc(C#N)cnc43)cc2NC(C)C)CC1 [Example 97, methyl((trans)-4-(6-(5-cyano-1H-pyrrolo[2,3-b]pyridin-1-yl)-4-(isopropylamino)nicotinamido)cyclohexyl)carbamate] |  | 108 nM | 
31 | 4.9 nM |  | CC(=O)N[C@H]1CC[C@H](NC(=O)c2cnc(-n3ccc4cncnc43)cc2NC2CCOCC2)CC1 [Example 83, N-((trans)-4-acetamidocyclohexyl)-6-(7H-pyrrolo[2,3-d]pyrimidin-7-yl)-4-((tetrahydro-2H-pyran-4-yl)amino)nicotinamide] | 777 nM | 443 nM | 
32 |  | 17.2 nM | CC(C)Nc1cc(-n2ncc3cc(C#N)cnc32)ncc1C(=O)NCc1nn[nH]n1 [Example 566] |  |  | EC50 [2, 4]: 637 nM
33 | 17 nM |  | CC(C)(C)NC(=O)c1cnc(-n2ncc3cc(C#N)cnc32)cc1Nc1cnn(CC(F)F)c1 [Example 390] | 199 nM |  | 
34 | 6.1 nM |  | CC(C)Nc1cc(-n2ncc3cc(C#N)cnc32)ncc1C(=O)NCCC1(O)CCOCC1 [Example 235] |  | 184 nM | 
35 | 4.5 nM |  | CC(C)CCNC(=O)c1cnc(-n2ncc3cc(C#N)cnc32)cc1NC(C)C [Example 298] | 142 nM |  | 
36 |  | 15.6 nM | CC(C)C(O)CNc1cc(-n2ncc3cc(C#N)cnc32)ncc1C(=O)NC[C@@H](F)C(C)(C)O (some centres unmarked) [Example 597] |  |  | IC50 [2, 4]: 307 nM
37 | 3.2 nM |  | COCCn1cc(Nc2cc(-n3ncc4cc(C#N)cnc43)ncc2C(=O)NC[C@@H](F)C(C)(C)O)cn1 [Example 363] | 459 nM |  | 
38 |  |  | CC(C)Nc1cc(-n2ncc3cc(C#N)cnc32)ncc1C(=O)NC[C@@H](F)C(C)(C)O [Example 192, (R)-6-(5-Cyano-1H-pyrazolo[3,4-b]pyridin-1-yl)-N-(2-fluoro-3-hydroxy-3-methylbutyl)-4-(isopropylamino)nicotinamide, hydrochloride] |  |  | IC50 ([1]; IRAK4 Inhibition Assay, hydrochloride): 2.6 nM; EC50 ([2]; PBMC TLR2 Induced IL-6 Assay, lipoteichoic acid stimulation, hydrochloride): 120 nM
39 |  | 1.2 nM | CC(C)(F)[C@H](F)CNC(=O)c1cnc(-n2ccc3cc(C#N)cnc32)cc1Nc1cccc(O)c1 [Example 517] |  |  | IC50 [2, 4]: 113 nM

Row | Compound | IC50 ([1]; IRAK4 Inhibition Assay) | IC50 ([1]; IRAK4 0.6 nM) | IC50 [2, 3] | EC50 [2, 3] | further results
40 | CNC(=O)[C@H]1CC[C@H](NC(=O)c2cnc(-n3ccc4cc(C#N)cnc43)cc2NCC(C)(C)O)CC1 [Example 93, 6-(5-cyano-1H-pyrrolo[2,3-b]pyridin-1-yl)-4-((2-hydroxy-2-methylpropyl)amino)-N-((trans)-4-(methylcarbamoyl)cyclohexyl) nicotinamide] | 8.4 nM |  |  |  | EC50 ([2]; PBMC TLR2 Induced IL-6 Assay, lipoteichoic acid stimulation): 562 nM
